Measured values reported in patent US10716769B2 (GUANGZHOU JTREAT BIOSCI. LTD., priority 2015, dated 2020).
In brackets after ≈: the same amount, converted by molar mass. Read-outs that look alike come from different tables or passages of the source.

Legend:
HIV-1 integrase = target: T1, HIV-1 integrase (Human immunodeficiency virus type 1 group M subtype B, UniProt P04585); experiment: Test of sample inhibition to HIV-1 integrase (ELISA, strand transfer); assay type: biochemical; details: for inhibition at 109 µg/mL: read-out: IC50 (HIV-1 IN inhibition), dash
T1 construct: purified HIV-1 integrase is added to donor substrates coated 96-well plate; made in house
Method: The half-inhibitory concentration IC50 for 3′ excision of the substrate and the strand transfer is in the range of 88.92-10.20 μg/ml, in which the best inhibitory activity of the compound is higher than that of the monomer compound of hydroxybenzoic acid. The mechanism of the HIV-1 integrase is a two-step reaction: 1) 3′ Processing: the integrase binds to the specific sequences of the long terminal repeat region (LTR) of the proviral DNA to form a stable complex, then the endonucleotides of 3′ end of nucleoside is processed, and the GT dinucleotide of the sequence . . . […] Thus, the activity of the integrase inhibitor is embodied in inhibiting the excision of the 3′end of the viral DNA or the strand transfer, and is represented by a half-inhibitory concentration IC50.
In vitro integrase test, 30 synthetic oligonucleotides are used as donor substrates, 20 synthetic oligonucleotides are used as target substrates. Purified HIV-1 integrase is added to donor substrates coated 96-well plate, ELISA reaction is performed, the product of the strand transfer of target DNA is detected, color development is conducted by biotin-labeled alkaline phosphatase system, and the microplate reader is used to measure the OD value.
First, inhibitors of the enzyme may be screened by adding a sample to the reaction system. Before use, the sample is prepared with DMSO to an appropriate concentration, and then is diluted 5 times at 4 dilutions. The sample after dilution is added into the donor substrate coated 96-well plate, and then added to the reaction Buffer containing the genetically engineered target enzyme and the biotin-target substrate, incubated under optimal reaction conditions, and colored by biotin-labeled alkaline phosphatase system, and the OD value for absorbance value at 405 nm is measured.
30 synthetic oligonucleotides are used as donor substrates, 20 synthetic oligonucleotides are used as target substrates, purified HIV-1 integrase is added to donor substrates coated 96-well plate, ELISA reaction is performed, the product of the strand transfer of target DNA is detected, color development is conducted by biotin-labeled alkaline phosphatase system, and the OD value is measured by a microplate reader. The addition of samples to the reaction system can be used to screen inhibitors for the enzyme.
1. HIV-1 IN: it is extracted and saved by Chinese National New Drug Screening Center and Institute of Pharmaceutical Biotechnology under Chinese Academy of Medical Sciences.
2. Sample Treatment: 10 samples A1-A10 dissolved into DMSO prior to use are prepared into suitable concentrations, and then diluted 5 times at 4 dilutions. Donor substrate and target substrate are from Shanghai Biochemical Synthesis.
3. Method for Test: the samples after dilution are added into the donor substrate coated 96-well plate, then added to the reaction Buffer containing the genetically engineered target enzyme and the biotin-target substrate, incubated under optimal reaction conditions, and colored by biotin-labeled alkaline phosphatase system, and the OD value for absorbance value at 405 nm is measured.

HPV 6/11 Virus = experiment: HPV detection via fluorescence quantitative PCR in genital warts tissue homogenate; parameters: species or system human papillomavirus; details: for HPV 6/11 virus detection, in words: 24 hours after addition into the tissue homogenate of genital warts; for HPV 6/11 Virus: genital warts tissue homogenate, 37° C., 24 hours, FQ-PCR
Excerpt: (§1) The aforesaid compounds and/or compositions containing the same are effective in killing and inhibiting HPV type 6/11 and type 16/18, which can be used for the preparation of drugs for preventing and treating viral infection of HPV, preventing and treating genital warts, flat warts, common warts, vaginitis, cervicitis and cervical erosion, cervical cancer, esophageal cancer and other cancers caused by HPV. The present invention observes the effect of active ingredients and products by the detection of the change in the amount of the HPV virus through the real-time quantitative PCR. Such method has been applied in several publications (Youling C A I, et al., Chinese STD/AIDS, 2002, 8: 2,108; Yuansheng W U, Ruijiang F A N, et al., Practical Application of Integrated Chinese and Western Medicine in Clinics, 2003, 3: 2,1).
(§2) The microemulsion obtained in example 1 is used as a test sample and saline for blank control.
(§3) The standard clinical genital warts specimens from a variety of patients after being cut off are washed with saline for removing bloods, and are cut into pieces under aseptic conditions, added with saline in 3 times of their volumes to be uniformly mixed, grinded into homogenate and placed at −40° C. for use.
(§4) Each test sample drug microemulsion and the saline of 50 μl for each are respectively added with 50 μl the genital warts tissue homogenate, and incubated at 37° C. for 24 hours; tests are performed according to the operation procedure provided by the HPV6, 11 and 16, 18 type FQ-PCR diagnostic kits provided by Da'an Gene Diagnostic Center. 0.2 ml of DNA extracted by the conventional alkaline lysis method is put into the thin-walled reaction tube, and simultaneously added with primers, F-PROBE, DNTP, DNA polymerase, buffers and the like in a certain concentration; ABI PRISM™ 7700 fluorescence quantitative PCR amplifier is used to repeat 40 circulations each with 45 s at 93° C. and 120 s at 55° C. after predegeneration at 93° C. for 2 mins; the quantitative results are automatically analyzed by the computer software to calculate the quantitative results of the initial copy number. The data are shown in Table 2 (completed by Da'an Gene Clinical Test Center).

HPV16/18 = experiment: as above; parameters: species or system human papillomavirus; details: for HPV16/18 virus detection, in words: 24 hours after addition into the tissue homogenate of genital warts; for HPV16/18: genital warts tissue homogenate, 37° C., 24 hours, FQ-PCR
Excerpt: as §1, §2, §3, §4

HSV-I, VR733 strain = experiment: Inhibition of cytopathic effects of Vero cells caused by herpes virus type I; assay type: cell-based; details: for IC50: read-out: IC50 Against HSV-1
Excerpt: (§5) Vero cells (kidney cells of African green monkey) are used as viral hosts to test the inhibition degree of the samples to the cytopathic effects of Vero cells caused by herpes virus type I and type II.
(§6) Vero cells (kidney cells of African green monkey) are used as viral hosts to test the inhibition degree of the samples to cytopathic effects of the Vero cell caused by herpes virus type I and type II.
(§7) 1. Virus strains: HSV-I, VR733 strain, and HSV-II, SAV strain, which both are provided by ATCC.
(§8) 2. Sample treatment: the sample is dissolved in DMSO at an appropriate concentration before use, and diluted with the culture medium 3 times at a total of 8 dilutions for test.
(§9) 3. Positive control drug: acyclovir (ACV) produced by the Hubei Ke Yi pharmaceutical factory.

HSV-II, SAV strain = experiment: Inhibition of cytopathic effects of Vero cells caused by herpes virus type II; assay type: cell-based; details: for IC50: read-out: IC50 Against HSV-II
Excerpt: as §5, §6, §7, §8, §9

Vero cells = experiment: Half toxic concentration in the anti-herpes screening; assay type: cell-based, African green monkey
Method: Vero cells (kidney cells of African green monkey) are used as viral hosts to test the inhibition degree of the samples to cytopathic effects of the Vero cell caused by herpes virus type I and type II. 2. Sample treatment: the sample is dissolved in DMSO at an appropriate concentration before use, and diluted with the culture medium 3 times at a total of 8 dilutions for test. 4.

[1] = Vero cells, CPE 48 hours, Reed-Muench

Structure (SMILES)	IC50 (HIV-1 integrase)	HPV 6/11 virus detection, in words (HPV 6/11 Virus)	HPV 6/11 Virus (HPV 6/11 Virus)	HPV16/18 virus detection, in words (HPV16/18)	HPV16/18 (HPV16/18)	also measured
O=C(c1ccccc1O)c1cccc(O)c1O [2,2′3′-trihydroxybenzophenone]	45.4 µM	can no longer be detected	0 copy/ml	can no longer be detected	0 copy/ml	–
O=C(c1ccccc1O)c1ccccc1O [2,2′-dihydroxybenzophenone]	71.5 µM	can no longer be detected	0 copy/ml	can no longer be detected	0 copy/ml	IC50 (HSV-I, VR733 strain; Human alphaherpesvirus 1, Vero, 48 h): 28.7 µg/mL (≈ 134 µM); IC50 (HSV-II, SAV strain; Human alphaherpesvirus 2, Vero, 48 h): 28.7 µg/mL (≈ 134 µM); TC50 half toxic concentration (Vero cells): 64.15 µg/mL (≈ 299 µM)
O=C(c1ccc(O)cc1O)c1cc(O)c(O)c(O)c1O [2,3,4,2′,4′,5-hexahydroxybenzophenone]	–	–	–	–	–	IC50 Against HSV-1 (HSV-I, VR733 strain; [1]): 28.74 µg/mL (≈ 103 µM); IC50 Against HSV-II (HSV-II, SAV strain; [1]): 28.74 µg/mL (≈ 103 µM)
O=C(O)c1cccc(O)c1O [2,3-dihydroxybenzoic acid, reference compound]	–	have a high concentration	2.30 × 10^4 copy/ml	have a high concentration	3.20 × 10^3 copy/ml	inhibition at 109 µg/mL (HIV-1 integrase): < 50%
O=C(O)c1cc(O)c(O)c(O)c1 [3,4,5-trihydroxybenzoic acid, reference compound]	591 µM	–	0 copy/ml	–	0 copy/ml	–
O=C(O)c1ccc(O)c(O)c1 [3,4-dihydroxybenzoic acid, reference compound]	–	have a high concentration	1.90 × 10^4 copy/ml	have a high concentration	8.50 × 10^4 copy/ml	inhibition at 109 µg/mL (HIV-1 integrase): < 50%
Nc1nc2c(ncn2COCCO)c(=O)[nH]1 [ACV, acyclovir, reference compound]	–	–	–	–	–	IC50 (HSV-I, VR733 strain; Human alphaherpesvirus 1, Vero cells, CPE 48 hours, Reed-Muench): 1.09 µg/mL (≈ 4.85 µM); IC50 (HSV-II, SAV strain; Human alphaherpesvirus 2, Vero cells, CPE 48 hours, Reed-Muench): 1.23 µg/mL (≈ 5.46 µM)
